Results from PMC4490784, “Compensatory induction of MYC expression by sustained CDK9 inhibition via a BRD4-dependent mechanism” (eLife, 2015).

System: Ser2-phosphorylated Pol II in HeLa cells
Test: Immunoblotting of global pSer2 (Pol II CTD) in HeLa cell lysates
Assay type: cell-based, human
Settings: 8 hr
Method: Inhibition of phosphorylation of both Pol II CTD and SPT5 is expected to block transcriptional elongation, which will effectively decrease the production of labile proteins from short-lived transcripts.
Figure 3. Induction of MYC mRNA production in response to sustained inhibition of CDK9 by i-CDK9 and the requirement of MYC's natural genomic structure in this process. (A) The indicated tumor cell lines were treated with i-CDK9 (0.5 μM) for 2–16 hr and the MYC mRNA levels, which were divided by those in the DMSO-treated cells and averaged from three independent replicates of DNA microarray analysis, were shown as log2 values. (B) HeLa cells were treated with the indicated concentrations of i-CDK9 for 8 hr and the various proteins in the total cell lysates were detected by immunoblotting as indicated. Quantifications of the levels of MYC protein and Ser2-phosphoryalted Pol II (pSer2) in the lysates were shown above and below the immunoblots, respectively. […] The levels of the indicated proteins were examined by immunoblotting. (G) A HeLa-based cell line containing the stably transfected, doxycycline (Dox)-inducible MYC-F-expressing plasmid driven by the CMV promoter was pretreated with (+) or without (−) Dox prior to incubation with i-CDK9 or DMSO. MYC and MYC-F expressed from the endogenous MYC locus and the transfected plasmid, respectively, were detected by immunoblotting. DOI: http://dx.doi.org/10.7554/eLife.06535.007 Figure 3—figure supplement 1. Biphasic response of MYC mRNA production throughout the course of CDK9 inhibition by i-CDK9. DOI: http://dx.doi.org/10.7554/eLife.06535.008 [drawing 2] Figure 3—Figure supplement 2. […] DOI: http://dx.doi.org/10.7554/eLife.06535.009 [drawing 3] TEXT PRINTED IN THE PICTURE: (B) i-CDK9: Fold increase in MYC protein: 1.0 (i-CDK9 (μM): 0); Fold increase in MYC protein: 1.2 (i-CDK9 (μM): 0.01); Fold increase in MYC protein: 1.7 (i-CDK9 (μM): 0.03); Fold increase in MYC protein: 3.6 (i-CDK9 (μM): 0.1); Fold increase in MYC protein: 5.2 (i-CDK9 (μM): 0.3); Fold increase in MYC protein: 5.5 (i-CDK9 (μM): 1.0) | (C) i-CDK9: Fold increase in MYC protein: 1.0 (0.3 μM i-CDK9 (h): 0); Fold increase in MYC protein: 0.9 (0.3 μM i-CDK9 (h): 1); Fold increase in MYC protein: 1.1 (0.3 μM i-CDK9 (h): 2); Fold increase in MYC protein: 1.2 (0.3 μM i-CDK9 (h): 4); Fold increase in MYC protein: 3.3 (0.3 μM i-CDK9 (h): 8)
First, the induction of MYC protein level was confirmed in HeLa cells treated with i-CDK9. […] It took 1.0 µM i-CDK9 to cause up to 85% reduction in pSer2. In a separate time-course analysis, the 8-hr incubation with i-CDK9 (0.3 μM) induced the MYC level by 3.3-fold, whereas the same condition reduced the pSer2 level by only 40% (Figure 3C). […]

With `N[C@H]1CC[C@H](Nc2cc(-c3cccc(NCc4cccc(F)c4)n3)c(Cl)cn2)CC1` [i-CDK9, N2′-(trans-4-aminocyclohexyl)-5′-chloro-N6-(3-fluorobenzyl)-2,4′-bipyridine-2′,6-diamine] the “decrease of global pSer2 level” value (0.1 μM) was 23%, the “reduction in global pSer2” value (0.3 μM, Figure 4-figure supplement 1) was “about 50%” and the “reduction in pSer2” value (1.0 μM) was “up to 85%”. The “pSer2 in the Pol II CTD and pThr775 in SPT5” value (dose-dependent) was “markedly reduced”.
